# According to BindingDB's records for doi:10.3109/14756366.2012.670806 (Jeju National University, 2013):
# Target: T1, Polyphenol oxidase 1 (White button mushroom, UniProt Q00024)
# T1 sequence (Q00024 whole entry): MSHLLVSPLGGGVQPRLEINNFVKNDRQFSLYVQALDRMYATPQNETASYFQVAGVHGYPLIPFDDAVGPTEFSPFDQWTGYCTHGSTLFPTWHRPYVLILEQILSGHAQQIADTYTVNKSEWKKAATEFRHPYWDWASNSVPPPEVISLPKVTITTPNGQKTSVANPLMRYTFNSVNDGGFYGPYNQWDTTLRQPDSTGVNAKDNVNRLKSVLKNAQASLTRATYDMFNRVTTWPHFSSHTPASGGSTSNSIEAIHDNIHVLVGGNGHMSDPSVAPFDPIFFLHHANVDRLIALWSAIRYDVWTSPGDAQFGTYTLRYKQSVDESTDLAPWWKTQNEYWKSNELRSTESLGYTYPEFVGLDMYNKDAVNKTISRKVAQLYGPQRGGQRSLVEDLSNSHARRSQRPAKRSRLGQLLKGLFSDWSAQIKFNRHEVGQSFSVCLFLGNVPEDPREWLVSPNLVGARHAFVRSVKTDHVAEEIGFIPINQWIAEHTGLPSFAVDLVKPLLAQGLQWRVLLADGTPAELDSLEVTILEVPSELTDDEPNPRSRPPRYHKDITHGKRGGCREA
# Assay: Tyrosinase Inhibition Assay
# Details: pH 6.8; 37 °C
# Experimental: Briefly, mushroom tyrosinase (1250 units/mL) and 2 mM L-tyrosine (0.07 mL) were added to a solution of phosphate buffer (0.1 M, pH 6.8, 0.09 mL) containing the test sample. The test mixture (0.2 mL) was incubated for 10 min at 37°C and the absorption due to the formation of dopachrome was monitored at 475 nm. The same mixture except for the plant extract was used as a control. Arbutin (hydroquinone-O-β-glucopyranoside) was used as a positive control. Each treatment was replicated three times.
row,Structure (SMILES),IC50 [µM]
1,"CC1OC(Oc2c(-c3ccc(O)cc3)oc3cc(O)cc(O)c3c2=O)C(OC(=O)/C=C/c2ccc(O)cc2)C(OC(=O)/C=C/c2ccc(O)cc2)C1O (stereo not drawn) [Neolitsea aciculata extract, 5]",67
2,"CC1OC(Oc2c(-c3ccc(O)cc3)oc3cc(O)cc(O)c3c2=O)C(OC(=O)/C=C/c2ccc(O)cc2)C(O)C1O (stereo not drawn) [Neolitsea aciculata extract, 6]",80
3,OC[C@H]1O[C@@H](Oc2ccc(O)cc2)[C@H](O)[C@@H](O)[C@@H]1O [4-hydroxyphenyl beta-D-glucopyranoside],320
